Laboratory results reported in ChEMBL document CHEMBL4390652, “Design, biological evaluation and X-ray crystallography of nanomolar multifunctional ligands targeting simultaneously acetylcholinesterase and glycogen synthase kinase-3” (Eur J Med Chem, 2019).

Columns and labels:
[1] = biological target: Transient receptor potential cation channel subfamily M member 6 (Homo sapiens) (UniProt Q9BX84); assay: Binding affinity to wild-type human partial length TRPM6 (Q1723 to I1998 residues) expressed in mammalian expression system assessed as residual binding level at 10 uM by Kinomescan method relative to control
[2] = biological target: Serine/threonine-protein kinase MARK2 (Homo sapiens) (UniProt Q7KZI7); assay: Binding affinity to wild-type human partial length MARK2 (M1 to R450 residues) expressed in bacterial expression system assessed as residual binding level at 10 uM by Kinomescan method relative to control
[3] = tested on: Epidermal growth factor receptor (Homo sapiens), P00533 [UNDEFINED MUTATION]; assay: Binding affinity to human partial length EGFR L747-E749del/A750P mutant expressed in bacterial expression system assessed as residual binding level at 10 uM by Kinomescan method relative to control
[4] = biological target: Myosin-IIIb (Homo sapiens) (UniProt Q8WXR4); assay: Binding affinity to wild-type human partial length MYO3B (M1 to D357 residues) expressed in bacterial expression system assessed as residual binding level at 10 uM by Kinomescan method relative to control
[5] = biological target: STE20-like serine/threonine-protein kinase (Homo sapiens) (UniProt Q9H2G2); assay: Binding affinity to wild-type human partial length SLK (S14 to A307 residues) expressed in bacterial expression system assessed as residual binding level at 10 uM by Kinomescan method relative to control
[6] = biological target: NT-3 growth factor receptor (Homo sapiens) (UniProt Q16288); assay: Binding affinity to wild-type human partial length TRKC (Q531 to G825 residues) expressed in mammalian expression system assessed as residual binding level at 10 uM by Kinomescan method relative to control
[7] = biological target: Myosin light chain kinase (Homo sapiens) (UniProt Q32MK0); assay: Binding affinity to wild-type human partial length MLCK (D488 to K800 residues) expressed in bacterial expression system assessed as residual binding level at 10 uM by Kinomescan method relative to control
[8] = biological target: Ephrin type-A receptor 4 (Homo sapiens) (UniProt P54764); assay: Binding affinity to wild-type human partial length EPHA4 (T601 to R897 residues) expressed in bacterial expression system assessed as residual binding level at 10 uM by Kinomescan method relative to control
[9] = biological target: STE20/SPS1-related proline-alanine-rich protein kinase (Homo sapiens) (UniProt Q9UEW8); assay: Binding affinity to wild-type human partial length STK39 (P43 to I357 residues) expressed in mammalian expression system assessed as residual binding level at 10 uM by Kinomescan method relative to control
[10] = biological target: Ribosomal protein S6 kinase alpha-6 (Homo sapiens) (UniProt Q9UK32); assay: Binding affinity to wild-type human partial length C-terminal RSK4 kinase domain 2 (I401 to Y711 residues) expressed in bacterial expression system assessed as residual binding level at 10 uM by Kinomescan method relative to control
[11] = biological target: Ribosomal protein S6 kinase alpha-5 (Homo sapiens) (UniProt O75582); assay: Binding affinity to wild-type human partial length C-terminal RPS6KA5 kinase domain 2 (V390 to T718 residues) expressed in bacterial expression system assessed as residual binding level at 10 uM by Kinomescan method relative to control
[12] = biological target: SNF-related serine/threonine-protein kinase (Homo sapiens) (UniProt Q9NRH2); assay: Binding affinity to wild-type human partial length SNRK (M1 to E339 residues) expressed in mammalian expression system assessed as residual binding level at 10 uM by Kinomescan method relative to control
[13] = biological target: Uncharacterized serine/threonine-protein kinase SBK3 (Homo sapiens) (UniProt P0C264); assay: Binding affinity to wild-type human partial length SgK110 (L22 to R329 residues) expressed in bacterial expression system assessed as residual binding level at 10 uM by Kinomescan method relative to control
[14] = biological target: Ephrin type-A receptor 8 (Homo sapiens) (UniProt P29322); assay: Binding affinity to wild-type human partial length EPHA8 (Q608 to C920 residues) expressed in bacterial expression system assessed as residual binding level at 10 uM by Kinomescan method relative to control
[15] = biological target: Protein kinase C epsilon type (Homo sapiens) (UniProt Q02156); assay: Binding affinity to wild-type human partial length PRKCE (A378 to P737 residues) expressed in mammalian expression system assessed as residual binding level at 10 uM by Kinomescan method relative to control
[16] = biological target: Mitogen-activated protein kinase kinase kinase 7 (Homo sapiens) (UniProt O43318); assay: Binding affinity to wild-type human partial length TAK1 (M1 to Q303 residues) expressed in mammalian expression system assessed as residual binding level at 10 uM by Kinomescan method relative to control
[17] = tested on: Serine/threonine-protein kinase B-raf (Homo sapiens), P15056 [V600E]; assay: Binding affinity to human partial length BRAF V600E mutant (S429 to E741 residues) expressed in mammalian expression system assessed as residual binding level at 10 uM by Kinomescan method relative to control
[18] = biological target: Serine/threonine-protein kinase Chk1 (Homo sapiens) (UniProt O14757); assay: Binding affinity to wild-type human partial length CHEK1 (M1 to G289 residues) expressed in bacterial expression system assessed as residual binding level at 10 uM by Kinomescan method relative to control
[19] = biological target: Mitogen-activated protein kinase kinase kinase kinase 2 (Homo sapiens) (UniProt Q12851); assay: Binding affinity to wild-type human partial length MAP4K2 (M1 to G318 residues) expressed in mammalian expression system assessed as residual binding level at 10 uM by Kinomescan method relative to control
[20] = biological target: Dual specificity mitogen-activated protein kinase kinase 3 (Homo sapiens) (UniProt P46734); assay: Binding affinity to wild-type human full length MEK3 (M1 to S318 residues) expressed in mammalian expression system assessed as residual binding level at 10 uM by Kinomescan method relative to control
[21] = tested on: Receptor-type tyrosine-protein kinase FLT3 (Homo sapiens), P36888 [D835Y]; assay: Binding affinity to human partial length FLT3 D835Y mutant (Q580 to Y969 residues) expressed in bacterial expression system assessed as residual binding level at 10 uM by Kinomescan method relative to control
[22] = biological target: Beta-adrenergic receptor kinase 1 (Homo sapiens) (UniProt P25098); assay: Binding affinity to wild-type human full length GRK2 (M1 to L689 residues) expressed in mammalian expression system assessed as residual binding level at 10 uM by Kinomescan method relative to control
[23] = biological target: Tyrosine-protein kinase JAK1 (Homo sapiens) (UniProt P23458); assay: Binding affinity to wild-type human partial length JAK1 JH1 catalytic domain (V856 to K1154 residues) expressed in bacterial expression system assessed as residual binding level at 10 uM by Kinomescan method relative to control
[24] = biological target: Casein kinase II subunit alpha (Homo sapiens) (UniProt P68400); assay: Binding affinity to wild-type human full length CSNK2A1 (M1 to Q391 residues) expressed in mammalian expression system assessed as residual binding level at 10 uM by Kinomescan method relative to control

Epidermal growth factor receptor (Homo sapiens), P00533 [UNDEFINED MUTATION], sequence (P00533 whole entry, looked up, stated change not applied, the tested form may be a part): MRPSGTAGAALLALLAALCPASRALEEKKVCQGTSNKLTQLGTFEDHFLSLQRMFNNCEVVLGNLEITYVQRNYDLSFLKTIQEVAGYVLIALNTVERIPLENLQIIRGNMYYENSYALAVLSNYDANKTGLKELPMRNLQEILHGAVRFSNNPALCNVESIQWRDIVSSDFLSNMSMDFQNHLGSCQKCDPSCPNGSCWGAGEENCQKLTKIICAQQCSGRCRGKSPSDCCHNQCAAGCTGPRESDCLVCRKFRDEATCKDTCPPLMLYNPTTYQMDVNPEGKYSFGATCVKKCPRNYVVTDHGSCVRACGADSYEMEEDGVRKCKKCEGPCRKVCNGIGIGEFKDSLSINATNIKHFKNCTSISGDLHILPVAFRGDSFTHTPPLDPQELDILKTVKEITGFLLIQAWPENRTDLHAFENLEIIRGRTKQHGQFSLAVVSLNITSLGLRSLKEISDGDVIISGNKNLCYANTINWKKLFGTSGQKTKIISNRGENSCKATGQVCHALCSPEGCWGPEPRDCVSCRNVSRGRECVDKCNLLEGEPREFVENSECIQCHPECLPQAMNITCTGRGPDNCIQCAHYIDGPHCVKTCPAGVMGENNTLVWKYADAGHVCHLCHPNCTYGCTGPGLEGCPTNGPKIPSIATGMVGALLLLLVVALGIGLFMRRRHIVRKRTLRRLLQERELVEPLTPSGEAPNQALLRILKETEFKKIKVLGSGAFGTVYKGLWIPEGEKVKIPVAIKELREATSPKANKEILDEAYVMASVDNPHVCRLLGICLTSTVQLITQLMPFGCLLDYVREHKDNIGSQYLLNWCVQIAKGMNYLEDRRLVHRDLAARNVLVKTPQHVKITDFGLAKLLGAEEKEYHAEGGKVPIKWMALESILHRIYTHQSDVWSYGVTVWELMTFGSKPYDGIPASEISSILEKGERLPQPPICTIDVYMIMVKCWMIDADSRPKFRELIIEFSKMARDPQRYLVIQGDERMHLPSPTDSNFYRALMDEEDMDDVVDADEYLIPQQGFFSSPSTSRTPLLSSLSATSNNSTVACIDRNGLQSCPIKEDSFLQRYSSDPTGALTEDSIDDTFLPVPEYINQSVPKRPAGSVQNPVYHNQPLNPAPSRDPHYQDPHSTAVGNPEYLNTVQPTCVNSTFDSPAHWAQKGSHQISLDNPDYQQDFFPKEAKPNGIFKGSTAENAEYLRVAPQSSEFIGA
Myosin light chain kinase (Homo sapiens), sequence (Q32MK0 whole entry, the tested form may be a part): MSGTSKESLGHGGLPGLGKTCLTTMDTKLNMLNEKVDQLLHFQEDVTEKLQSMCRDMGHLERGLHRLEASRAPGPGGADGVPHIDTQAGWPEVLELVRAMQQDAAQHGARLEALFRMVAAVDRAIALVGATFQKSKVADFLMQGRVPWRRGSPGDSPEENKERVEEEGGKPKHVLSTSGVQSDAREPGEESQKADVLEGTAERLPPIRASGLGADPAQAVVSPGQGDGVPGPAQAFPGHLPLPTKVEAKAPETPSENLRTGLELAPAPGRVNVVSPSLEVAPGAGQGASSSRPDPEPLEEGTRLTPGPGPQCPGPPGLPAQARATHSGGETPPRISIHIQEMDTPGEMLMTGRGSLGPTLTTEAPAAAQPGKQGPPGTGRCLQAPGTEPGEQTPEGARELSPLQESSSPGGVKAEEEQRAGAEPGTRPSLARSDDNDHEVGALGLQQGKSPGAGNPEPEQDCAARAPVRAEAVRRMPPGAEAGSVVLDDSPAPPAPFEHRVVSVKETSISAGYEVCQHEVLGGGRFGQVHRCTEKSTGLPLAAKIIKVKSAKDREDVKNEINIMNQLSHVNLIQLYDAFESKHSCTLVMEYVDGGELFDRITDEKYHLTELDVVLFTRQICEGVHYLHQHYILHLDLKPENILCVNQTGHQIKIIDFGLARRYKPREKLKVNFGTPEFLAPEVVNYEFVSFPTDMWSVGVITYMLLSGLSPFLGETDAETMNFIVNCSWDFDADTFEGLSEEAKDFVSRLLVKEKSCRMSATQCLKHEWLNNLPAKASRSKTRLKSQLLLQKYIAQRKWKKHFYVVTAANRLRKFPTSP
Ribosomal protein S6 kinase alpha-5 (Homo sapiens), sequence (O75582 whole entry, looked up, the tested form may be a part): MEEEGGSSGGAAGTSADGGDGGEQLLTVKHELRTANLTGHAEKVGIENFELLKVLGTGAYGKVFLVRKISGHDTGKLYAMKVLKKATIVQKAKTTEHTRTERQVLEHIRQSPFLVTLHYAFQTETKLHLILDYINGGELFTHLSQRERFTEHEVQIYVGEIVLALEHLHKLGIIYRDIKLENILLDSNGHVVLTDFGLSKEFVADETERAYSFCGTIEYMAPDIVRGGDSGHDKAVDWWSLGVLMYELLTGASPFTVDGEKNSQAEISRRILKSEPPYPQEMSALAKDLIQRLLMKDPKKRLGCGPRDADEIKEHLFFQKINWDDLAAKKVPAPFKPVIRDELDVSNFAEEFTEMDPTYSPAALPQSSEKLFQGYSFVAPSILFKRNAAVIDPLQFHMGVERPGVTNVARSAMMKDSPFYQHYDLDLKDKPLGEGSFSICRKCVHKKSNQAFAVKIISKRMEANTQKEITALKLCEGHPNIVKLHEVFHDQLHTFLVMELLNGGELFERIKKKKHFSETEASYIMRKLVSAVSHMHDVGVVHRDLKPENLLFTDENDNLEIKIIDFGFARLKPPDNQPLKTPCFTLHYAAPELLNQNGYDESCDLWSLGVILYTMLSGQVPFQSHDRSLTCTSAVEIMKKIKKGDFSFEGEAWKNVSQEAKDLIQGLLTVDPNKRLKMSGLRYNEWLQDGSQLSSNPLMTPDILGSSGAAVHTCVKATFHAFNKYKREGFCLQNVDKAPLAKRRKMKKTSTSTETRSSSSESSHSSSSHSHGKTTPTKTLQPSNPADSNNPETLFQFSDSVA
Transient receptor potential cation channel subfamily M member 6 (Homo sapiens), sequence (Q9BX84 whole entry, the tested form may be a part): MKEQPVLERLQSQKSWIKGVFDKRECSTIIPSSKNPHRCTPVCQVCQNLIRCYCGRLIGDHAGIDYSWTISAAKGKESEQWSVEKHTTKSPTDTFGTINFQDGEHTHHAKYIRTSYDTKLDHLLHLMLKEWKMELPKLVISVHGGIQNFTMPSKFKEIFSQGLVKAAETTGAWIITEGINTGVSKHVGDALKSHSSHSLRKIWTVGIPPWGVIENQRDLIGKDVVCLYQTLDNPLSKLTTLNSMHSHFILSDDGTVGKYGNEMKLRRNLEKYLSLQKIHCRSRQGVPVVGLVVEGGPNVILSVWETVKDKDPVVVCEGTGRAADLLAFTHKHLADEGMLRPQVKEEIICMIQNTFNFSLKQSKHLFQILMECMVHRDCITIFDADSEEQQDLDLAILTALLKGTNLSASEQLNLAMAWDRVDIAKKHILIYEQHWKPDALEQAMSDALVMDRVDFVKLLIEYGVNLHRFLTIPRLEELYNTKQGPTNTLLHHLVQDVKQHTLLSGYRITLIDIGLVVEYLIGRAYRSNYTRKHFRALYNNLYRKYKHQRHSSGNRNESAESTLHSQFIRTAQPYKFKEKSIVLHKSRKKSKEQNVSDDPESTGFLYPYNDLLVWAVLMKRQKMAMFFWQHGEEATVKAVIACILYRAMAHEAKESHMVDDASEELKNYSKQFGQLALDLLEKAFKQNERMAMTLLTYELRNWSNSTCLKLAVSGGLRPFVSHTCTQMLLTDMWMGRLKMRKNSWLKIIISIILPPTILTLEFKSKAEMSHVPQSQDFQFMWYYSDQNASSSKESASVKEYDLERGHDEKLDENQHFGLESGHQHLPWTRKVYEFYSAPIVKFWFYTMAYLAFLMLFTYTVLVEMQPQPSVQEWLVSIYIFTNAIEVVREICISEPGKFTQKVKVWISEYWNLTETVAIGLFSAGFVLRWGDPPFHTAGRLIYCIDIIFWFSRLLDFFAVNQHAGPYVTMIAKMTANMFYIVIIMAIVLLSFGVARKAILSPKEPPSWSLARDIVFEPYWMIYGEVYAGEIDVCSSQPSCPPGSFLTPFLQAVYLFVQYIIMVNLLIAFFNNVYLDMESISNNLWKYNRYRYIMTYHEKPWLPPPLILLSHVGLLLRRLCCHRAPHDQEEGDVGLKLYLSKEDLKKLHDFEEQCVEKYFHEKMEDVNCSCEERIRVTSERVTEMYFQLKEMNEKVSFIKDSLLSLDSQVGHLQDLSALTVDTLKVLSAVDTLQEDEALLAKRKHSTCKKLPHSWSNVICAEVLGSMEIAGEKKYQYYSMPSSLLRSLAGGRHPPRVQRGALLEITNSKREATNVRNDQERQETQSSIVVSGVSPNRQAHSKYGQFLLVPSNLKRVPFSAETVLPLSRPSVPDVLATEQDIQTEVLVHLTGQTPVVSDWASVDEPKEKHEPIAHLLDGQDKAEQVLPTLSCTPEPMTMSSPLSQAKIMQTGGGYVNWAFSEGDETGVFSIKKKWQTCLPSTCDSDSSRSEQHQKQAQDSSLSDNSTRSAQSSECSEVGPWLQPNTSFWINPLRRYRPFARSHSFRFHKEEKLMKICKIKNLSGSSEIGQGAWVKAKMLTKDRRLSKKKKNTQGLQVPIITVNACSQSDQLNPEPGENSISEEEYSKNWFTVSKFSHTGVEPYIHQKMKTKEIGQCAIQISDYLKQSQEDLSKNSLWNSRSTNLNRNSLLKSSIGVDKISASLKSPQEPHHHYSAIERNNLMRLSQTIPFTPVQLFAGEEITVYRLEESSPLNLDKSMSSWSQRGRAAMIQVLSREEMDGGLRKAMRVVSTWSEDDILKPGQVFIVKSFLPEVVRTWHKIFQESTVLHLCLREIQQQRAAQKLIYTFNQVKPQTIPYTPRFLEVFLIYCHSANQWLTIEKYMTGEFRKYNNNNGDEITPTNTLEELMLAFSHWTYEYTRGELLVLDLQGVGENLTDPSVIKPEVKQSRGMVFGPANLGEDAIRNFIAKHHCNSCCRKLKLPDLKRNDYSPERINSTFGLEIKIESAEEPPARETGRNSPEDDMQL

SMILES: O=C(Nc1cc(-c2cn(CCNc3c4c(nc5ccccc35)CCCC4)nn2)ccn1)Nc1cccc2c1C1CCCCN1C2=O (racemic)
- Activity [1]: 100%
- Activity [2]: 46%
- Activity [3]: 68%
- Activity [4]: 100%
- Activity [5]: 30%
- Activity [6]: 14%
- Activity [7]: 0.35%
- Activity [8]: 100%
- Activity [9]: 100%
- Activity [10]: 57%
- Activity [11]: 96%
- Activity [12]: 100%
- Activity [13]: 100%
- Activity [14]: 80%
- Activity [15]: 100%
- Activity [16]: 1.6%
- Activity [17]: 39%
- Activity [18]: 92%
- Activity [19]: 9.2%
- Activity [20]: 70%
- Activity [21]: 1.1%
- Activity [22]: 100%
- Activity [23]: 84%
- Activity [24]: 33%
